Earlier results, collected in US20230190604A1, “DERMATOLOGIC/PERSONAL CARE CONCENTRATES” (Vantage Specialty Ingredients, Inc., priority 2021, published 2023).

How the values were obtained:
[1] = ethanol as solvent, "normal temperatures"
[2] = water as solvent

## O=C(O)CCCCCCCC(=O)O [azelaic acid]
[1]
  stability of azelaic acid in ethanol: unstable
[2]
  maximum concentration of azelaic acid dissolved in water: about 0.24 % by weight (w/w)
